In patent US9200008B2 (ASKA PHARMACEUTICAL CO., LTD., priority 2010, dated 2015) one finds minimal effective concentration data, which are given here for 68 compounds.

The assay relates to Human prostate cancer cell lines (PC-3 cells). In words: Measurement of cell death-inducing activity (Test Example 1). In kind it is cell-based. The following applies: PC-3, 48 h, 48 hours after addition, tested at 10, 1, 0.1, 0.025 and 0.00625 μmol/L, qualitative evaluation of 10 fields, read-out: Concentration showing the cell death-inducing activity (cell death-inducing rate not less than 40%). Put shortly: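 PC-3 cells seeded at 1×10^5 cells/well and grown 48 h at 37 °C, 5% CO2, then exposed to compound at 10, 1, 0.1, 0.025 and 0.00625 μmol/L (DMSO control) for a further 48 h. Activity was called where cell death-inducing rate was not less than 40%.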
For `Cc1cc(/C=N/NC(=O)c2sc(-c3ccc(Cl)cc3)nc2C(C)(C)C)cc(C)c1O` [Example 23-21], the minimal effective concentration is 10 µM.

As to `COc1ccc(/C=N/NC(=O)c2sc(-c3cccc(C)c3C)nc2C)cc1O` [Example 23-22], the minimal effective concentration turned out to be 1 µM.

On to `Cc1cccc(-c2nc(C)c(C(=O)N/N=C/c3cc(C)c(O)c(C)c3)s2)c1C` [Example 23-23], for which the minimal effective concentration is 1 µM.

As to `COc1ccc(/C=N/NC(=O)c2sc(-c3cccc(OC)c3OC)nc2C)cc1O` [Example 23-24], the minimal effective concentration turned out to be 10 µM.

Turning to `COc1ccc(/C=N/NC(=O)c2sc(-c3ncccc3C)nc2C)cc1O` [Example 23-26], the minimal effective concentration stood at 1 µM.

For `COc1ccc(/C=N/NC(=O)c2sc(-c3nccc4ccccc34)nc2C)cc1O` [Example 23-27], the minimal effective concentration came to 10 µM.

For the compound `COc1ccc(/C=N/NC(=O)c2sc(-c3ccccn3)nc2C)cc1O` [Example 23-28], the minimal effective concentration was determined as 1 µM.

Consider `CCCCCCc1nc(-c2ccc(Cl)cc2)sc1C(=O)N/N=C/c1ccc(OC)c(O)c1` [Example 23-30], for which the minimal effective concentration was 10 µM.

As for `Cc1ccc(/C=N/NC(=O)c2sc(-c3ccc(Cl)cc3)nc2C)cc1O` [Example 23-35], the minimal effective concentration stood at 10 µM.

Turning to `COc1ccc(/C=N/NC(=O)c2sc(-c3csc4ccccc34)nc2C)cc1O` [Example 23-38], the minimal effective concentration turned out to be 1 µM.

Regarding `COc1ccc(/C=N/NC(=O)c2sc(-c3ccncc3)nc2C)cc1O` [Example 23-40], the minimal effective concentration worked out at 10 µM.

Take `COc1ccc(/C=N/NC(=O)c2sc(-c3cccnc3)nc2C)cc1O` [Example 23-41]: the minimal effective concentration turned out to be 1 µM.

On to `COc1ccc(/C=N/NC(=O)c2sc(-c3ccc(Cl)cc3)nc2C)cc1OC` [Example 23-42], for which the minimal effective concentration came to 10 µM.

Regarding `Cc1cccc(-c2nc(C)c(C(=O)N/N=C/c3ccc4c(c3)OCO4)s2)c1C` [Example 23-43], the minimal effective concentration came out at 1 µM.

Take `COc1ccc(/C=N/NC(=O)c2sc(-c3ccc(C)cc3C)nc2C)cc1O` [Example 23-44]: the minimal effective concentration came out at 0.1 µM.

Take `Cc1ccc(-c2nc(C)c(C(=O)N/N=C/c3ccc(O)c(C)c3)s2)c(C)c1` [Example 23-45]: the minimal effective concentration came out at 1 µM.

Regarding `COc1ccc(/C=N/NC(=O)c2sc(-c3ccc(Cl)cc3C)nc2C)cc1O` [Example 23-46], the minimal effective concentration came to 0.025 µM.

With `Cc1cc(/C=N/NC(=O)c2sc(-c3ccc(Cl)cc3C)nc2C)ccc1O` [Example 23-47], the minimal effective concentration is 1 µM.

For the compound `CCCOc1ccccc1-c1nc(C)c(C(=O)N/N=C/c2ccc(OC)c(O)c2)s1` [Example 23-48], the minimal effective concentration came to 0.1 µM.

Turning to `COc1ccc(/C=N/NC(=O)c2cnc(-c3ccccc3C)s2)cc1O` [Example 23-50], the minimal effective concentration came out at 0.1 µM.

For the compound `Cc1cc(/C=N/NC(=O)c2cnc(-c3ccccc3C)s2)ccc1O` [Example 23-51], the minimal effective concentration is 10 µM.

For `Cc1ccccc1-c1ncc(C(=O)N/N=C/c2ccc3c(c2)OCO3)s1` [Example 23-52], the minimal effective concentration stood at 1 µM.

Turning to `COc1ccc(/C=N/NC(=O)c2sc(-c3ccccc3)nc2C)cc1O` [Example 23-53], the minimal effective concentration worked out at 0.1 µM.

On to `CCCOc1ccccc1-c1nc(C)c(C(=O)N/N=C/c2cc(C)c(O)c(C)c2)s1` [Example 23-55], for which the minimal effective concentration stood at 1 µM.

With `COc1ccc(/C=N/NC(=O)c2sc(-c3ccccc3O)nc2C)cc1O` [Example 23-57], the minimal effective concentration is 10 µM.

For `Cc1nc(-c2ccc(Cl)cc2)sc1C(=O)N/N=C/c1ccccc1O` [Example 23-59], the minimal effective concentration was found to be 10 µM.

Take `COc1cccc(/C=N/NC(=O)c2sc(-c3ccc(Cl)cc3)nc2C)c1O` [Example 23-60]: the minimal effective concentration came to 10 µM.

Regarding `COc1ccc(/C=N/NC(=O)c2sc(-c3ccc(Cl)cc3)nc2C)c(Cl)c1O` [Example 23-61], the minimal effective concentration was 1 µM.

As to `COc1ccc(/C=N/NC(=O)c2sc(-c3ccccc3F)nc2C)cc1` [Example 23-65], the minimal effective concentration was 1 µM.

Regarding `COc1ccc(/C=N/NC(=O)c2sc(-c3cccc(F)c3)nc2C)cc1` [Example 23-66], the minimal effective concentration came out at 1 µM.

Regarding `COc1ccc(/C=N/NC(=O)c2sc(-c3ccc(F)cc3)nc2C)cc1` [Example 23-67], the minimal effective concentration is 1 µM.

Regarding `COc1ccc(/C=N/NC(=O)c2sc(-c3ccccc3OC)nc2C)cc1F` [Example 23-68], the minimal effective concentration is 0.1 µM.

Take `COc1ccccc1-c1nc(C)c(C(=O)N/N=C/c2ccc(SC)cc2)s1` [Example 23-70]: the minimal effective concentration worked out at 0.1 µM.

For `COc1ccc(/C=N/NC(=O)c2sc(-c3ccccc3F)nc2C)cc1O` [Example 23-71], the minimal effective concentration amounted to 1 µM.

Turning to `COc1ccc(/C=N/NC(=O)c2sc(-c3cccc(F)c3)nc2C)cc1O` [Example 23-72], the minimal effective concentration was 1 µM.

As to `COc1ccc(/C=N/NC(=O)c2sc(-c3ccc(F)cc3)nc2C)cc1O` [Example 23-73], the minimal effective concentration amounted to 0.1 µM.

As to `COc1ccc(/C=N/NC(=O)c2sc(-c3ccc(Cl)cc3OC)nc2C)cc1O` [Example 23-74], the minimal effective concentration was 0.1 µM.

Turning to `COc1cc(Cl)ccc1-c1nc(C)c(C(=O)N/N=C/c2ccc(O)cc2)s1` [Example 23-75], the minimal effective concentration amounted to 1 µM.

Consider `COc1cc(Cl)ccc1-c1nc(C)c(C(=O)N/N=C/c2ccc(O)c(C)c2)s1` [Example 23-76], for which the minimal effective concentration turned out to be 1 µM.

Regarding `COc1cc(Cl)ccc1-c1nc(C)c(C(=O)N/N=C/c2ccc(O)c(O)c2)s1` [Example 23-77], the minimal effective concentration came out at 1 µM.

For the compound `COc1ccc(/C=N/NC(=O)c2sc(-c3ccc(Cl)cc3OC)nc2C)cc1OC` [Example 23-78], the minimal effective concentration is 0.1 µM.

Consider `COc1ccc(/C=N/NC(=O)c2sc(-c3ccc(Cl)cc3OC)nc2C)cc1` [Example 23-79], for which the minimal effective concentration is 0.1 µM.

As to `COc1cccc(/C=N/NC(=O)c2sc(-c3ccc(Cl)cc3OC)nc2C)c1` [Example 23-80], the minimal effective concentration amounted to 1 µM.

With `COc1cc(/C=N/NC(=O)c2sc(-c3ccc(Cl)cc3OC)nc2C)ccc1O` [Example 23-81], the minimal effective concentration stood at 10 µM.

In the case of `COc1ccc(/C=N/NC(=O)c2sc(-c3ccc(Cl)cc3OC)nc2C)cc1C` [Example 23-82], the minimal effective concentration was found to be 0.1 µM.

Regarding `COc1cc(Cl)ccc1-c1nc(C)c(C(=O)N/N=C/c2ccc3c(c2)CCO3)s1` [Example 23-83], the minimal effective concentration turned out to be 0.1 µM.

`COc1cc(Cl)ccc1-c1nc(C)c(C(=O)N/N=C/c2cc(C)c(O)c(C)c2)s1` [Example 23-84]: the minimal effective concentration turned out to be 0.1 µM.

`COc1ccc(/C=N/NC(=O)c2sc(-c3ccc(Cl)cc3OC)nc2C)cn1` [Example 23-85]: the minimal effective concentration is 1 µM.

Consider `COc1ccc(/C=N/NC(=O)c2sc(-c3ccccc3OC)nc2C)c(O)c1` [Example 23-86], for which the minimal effective concentration is 10 µM.

Regarding `COc1ccccc1-c1nc(C)c(C(=O)N/N=C/c2ccc(N(C)C)cc2)s1` [Example 23-88], the minimal effective concentration was 0.1 µM.

For the compound `COc1ccccc1-c1nc(C)c(C(=O)N/N=C/c2ccc(N3CCOCC3)cc2)s1` [Example 23-89], the minimal effective concentration was found to be 1 µM.

For `COc1ccccc1-c1nc(C)c(C(=O)N/N=C/c2ccc3[nH]ccc3c2)s1` [Example 23-90], the minimal effective concentration was 0.1 µM.

In the case of `COc1ccccc1-c1nc(C)c(C(=O)N/N=C/c2ccc3cc[nH]c3c2)s1` [Example 23-91], the minimal effective concentration is 0.1 µM.

Consider `COc1ccccc1-c1nc(C)c(C(=O)N/N=C/c2ccc3c(ccn3C)c2)s1` [Example 23-92], for which the minimal effective concentration came out at 0.025 µM.

As to `COc1ccccc1-c1nc(C)c(C(=O)N/N=C/c2ccc3ccn(C)c3c2)s1` [Example 23-93], the minimal effective concentration amounted to 0.1 µM.

For `COc1cc(Cl)ccc1-c1nc(C)c(C(=O)N/N=C/c2cccc3[nH]ccc23)s1` [Example 23-94], the minimal effective concentration was 1 µM.

Regarding `COc1cc(Cl)ccc1-c1nc(C)c(C(=O)N/N=C/c2cccc3c2ccn3C)s1` [Example 23-95], the minimal effective concentration was found to be 0.1 µM.

Consider `COc1ccccc1-c1nc(C)c(C(=O)N/N=C/c2ccc3ncccc3c2)s1` [Example 23-97], for which the minimal effective concentration was found to be 0.1 µM.

As for `COc1ccccc1-c1nc(C)c(C(=O)N/N=C/c2ccc3c(c2)OCCN3C)s1` [Example 23-98], the minimal effective concentration came out at 0.1 µM.

On to `CCc1nc(-c2ccc(Cl)cc2)sc1C(=O)N/N=C/c1ccc(OC)c(O)c1` [Example 23-100], for which the minimal effective concentration amounted to 1 µM.

As to `COc1ccc(/C=N/NC(=O)c2sc(-c3ccc(Cl)cc3)nc2C2CC2)cc1O` [Example 23-101], the minimal effective concentration came out at 10 µM.

For `CCCc1nc(-c2ccc(Cl)cc2)sc1C(=O)N/N=C/c1ccc(OC)c(O)c1` [Example 23-102], the minimal effective concentration stood at 10 µM.

Turning to `COc1ccc(-c2nc(C)c(C(=O)N/N=C/c3ccc(OC)c(O)c3)s2)cc1` [Example 23-103], the minimal effective concentration worked out at 10 µM.

`COc1ccc(-c2nc(C)c(C(=O)N/N=C/c3cc(C)c(O)c(C)c3)s2)cc1` [Example 23-104]: the minimal effective concentration came out at 1 µM.

As to `CCCCCCOc1ccc(/C=N/NC(=O)c2sc(-c3ccc(Cl)cc3)nc2C)cc1O` [Example 23-105], the minimal effective concentration amounted to 10 µM.

In the case of `CCc1nc(-c2ccc(Cl)cc2)sc1C(=O)N/N=C/c1cc(C)c(O)c(C)c1` [Example 23-106], the minimal effective concentration amounted to 1 µM.

As to `CCCc1nc(-c2ccc(Cl)cc2)sc1C(=O)N/N=C/c1cc(C)c(O)c(C)c1` [Example 23-107], the minimal effective concentration turned out to be 10 µM.

`CCc1nc(-c2ccc(Cl)cc2)sc1C(=O)N/N=C/c1ccc(O)c(C)c1` [Example 23-108]: the minimal effective concentration was 10 µM.
